Source: patent US20070219190A1, “Heterocyclic NF-kB Inhibitors” (4SC AG, priority 2006, published 2007)

system: A549-NF-κB-SEAP reporter cells; test: NF-κB inflammation assay (PRINCESS NINA Instant Assay, SEAP reporter); assay type: cell-based; conditions: stimulation with 2 ng/ml TNF-α; test concentration for the class not stated
Description: Inhibition of NF-κB-Induced Inflammation:
For the determination of anti-inflammatory activity of the compounds the PRINCESS® NINA Instant Assay from Cell Culture Service GmbH was used. This assay is based on recombinant A549-NF-κB-SEAP reporter cells preseeded in 96-well flat bottom plates. As the transfected reporter gene for SEAP (secreted embryonic alkaline phosphatase) is under transcriptional control of a NF-κB-responsive element, the expression of this reporter is activated upon stimulation with TNF-α. SEAP secretion into the culture supernatant can be detected by the chemiluminescent substrate CSPD®. Test compounds that inhibit the NF-κB activation show reduced SEAP activity and reduced luminescent readout.
Following 18 h of reactivation at 37° C., 5% CO2 and 90% relative humidity, the cells were incubated with 0.01 up to 100 μM of test compound for 4.5 h before stimulation with 2 ng/ml TNF-α. After stimulation with TNF-α for 22 h endogenous phosphatases were inactivated and CSPD® substrate was supplied for 40 min. SEAP activity then was quantified by measuring luminescence as relative light units (RLU) using a Tecan Ultra reader. Each data point was recorded in quadruplicates and EC50 values were calculated via fitting function and the Microsoft Excel Solver.

| Compound | Biological activity (NF-κB inflammation assay, inhibition) |
| --- | --- |
| O=C(c1csc(C2CCN(c3ncnc4ccsc34)CC2)n1)N1CCN(c2nsc3ccccc23)CC1 [Cp. 8, (4-Benzo[d]isothiazol-3-yl-piperazin-1-yl)-[2-(1-thieno[3,2-d]pyrimidin-4-yl-piperidin-4-yl)-thiazol-4-yl]-methanone] | +++ (“+++” stands for 90-100% inhibition) |
| N#Cc1ccc(CN2CCC(c3nc(C(=O)N4CCC(n5nnc6cc(C(F)(F)F)ccc65)CC4)cs3)CC2)cc1 [Cp. 1, 4-(4-{4-[4-(5-Trifluoromethyl-benzotriazol-1-yl)-piperidine-1-carbonyl]-thiazol-2-yl}-piperidin-1-yl-methyl)-benzonitrile] | ++ (“++” means 80-90%) |
| COc1nc(OC)nc(N2CCC(c3nc(C(=O)N4CCN(c5nsc6ccccc56)CC4)cs3)CC2)n1 [Cp. 5, (4-Benzo[d]isothiazol-3-yl-piperazin-1-yl)-{2-[1-(4,6-dimethoxy-[1,3,5]triazin-2-yl)-piperidin-4-yl]-thiazol-4-yl}-methanone] | ++ (“++” means 80-90%) |
| N#Cc1ccc(CN2CCC(c3nc(C(=O)N4CCC(n5cnc6ccccc65)CC4)cs3)CC2)cc1 [Cp. 3, 4-{4-[4-(4-Benzoimidazol-1-yl-piperidine-1-carbonyl)-thiazol-2-yl]-piperidin-1-ylmethyl}-benzonitrile] | ++ (“++” means 80-90%) |
| COc1nc(OC)nc(N2CCC(c3nc(C(=O)N4CCC(n5cnc6ccccc65)CC4)cs3)CC2)n1 [Cp. 6, (4-Benzoimidazol-1-yl-piperidin-1-yl)-{2-[1-(4,6-dimethoxy-[1,3,5]triazin-2-yl)-piperidin-4-yl]-thiazol-4-yl}-methanone] | ++ (“++” means 80-90%) |
| COc1cc(N2CCC(c3nc(C(=O)N4CCN(c5nsc6ccccc56)CC4)cs3)CC2)nc(OC)n1 [Cp. 7, (4-Benzo[d]isothiazol-3-yl-piperazin-1-yl)-{2-[1-(2,6-dimethoxy-pyrimidin-4-yl)-piperidin-4-yl]-thiazol-4-yl}-methanone] | ++ (“++” means 80-90%) |
| N#Cc1ccc(CN2CCC(c3nc(C(=O)N4CCN(c5nsc6ccccc56)CC4)cs3)CC2)cc1 [Cp. 2, 4-{4-[4-(4-Benzo[d]isothiazol-3-yl-piperazine-1-carbonyl)-thiazol-2-yl]-piperidin-1-ylmethyl}-benzonitrile] | ++ (“++” means 80-90%) |
